Laboratory results: US10828298B2, “Pharmaceutical composition containing 2-{4-[N-(5,6-diphenylpyrazin-2-yl)-N-isopropylamino]butyloxy]-N-(methylsulfonyl)acetamide” (NIPPON SHINYAKU CO., LTD., priority 2015, dated 2020)

Columns and labels:
[1] = Stability of Compound (I) itself to temperature and humidity (formulation study); type: physicochemical
[2] = molecular target: prostaglandin I2 (PGI2) receptor (Homo sapiens, UniProt P43119); settings: known, PTL 1; cited from earlier work
Chain of prostaglandin I2 (PGI2) receptor (P43119 whole entry): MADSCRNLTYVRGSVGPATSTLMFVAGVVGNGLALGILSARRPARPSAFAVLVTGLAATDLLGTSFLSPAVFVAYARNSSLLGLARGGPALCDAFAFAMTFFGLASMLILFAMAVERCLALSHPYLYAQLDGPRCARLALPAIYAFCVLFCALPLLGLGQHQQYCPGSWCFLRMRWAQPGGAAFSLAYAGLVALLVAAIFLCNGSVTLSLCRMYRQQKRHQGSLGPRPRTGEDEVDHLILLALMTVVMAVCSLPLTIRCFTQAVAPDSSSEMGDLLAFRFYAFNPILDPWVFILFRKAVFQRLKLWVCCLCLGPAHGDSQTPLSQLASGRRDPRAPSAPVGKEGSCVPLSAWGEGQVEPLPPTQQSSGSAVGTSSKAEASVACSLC

For `CC(C)N(CCCCOCC(=O)NS(C)(=O)=O)c1cnc(-c2ccccc2)c(-c2ccccc2)n1` [Compound (I), 2-{4-[N-(5,6-diphenylpyrazin-2-yl)-N-isopropylamino]butyloxy}-N-(methylsulfonyl)acetamide], the “Stability of Compound (I) itself, in words” value [1] is given as “stable to temperature and humidity” and the “PGI2 receptor agonistic activity, in words” value [2] is given as “excellent”.
